Source: ChEMBL document CHEMBL1127974, “Design, synthesis, and activity of conformationally-constrained macrocyclic peptide-based inhibitors of HIV protease” (Bioorg Med Chem Lett, 1994)

Experiments:
[1] = tested on: MT2; test: Effective concentration against HIV infected MT-2 cell line; format: functional, cell-based; conditions: Homo sapiens
[2] = biological target: T1, Human immunodeficiency virus type 1 protease (Human immunodeficiency virus 1, UniProt Q72874); test: In vitro inhibition HIV-1 IIIB protease.
[3] = biological target: T1, Human immunodeficiency virus type 1 protease; test: In vitro inhibitory activity of compound against HIV protease from BRU (IIIB) strain of HIV- 1 virus was determined

SMILES | EC50 [1] [µM] | IC50 [2] [µM] | IC50 [3] [µM]
CC(C)(C)NC(=O)[C@@H]1C[C@@H]2CCCC[C@@H]2CN1C[C@@H](O)[C@H](Cc1ccccc1)NC(=O)[C@H](CC(N)=O)NC(=O)c1ccc2ccccc2n1 | 0.005 | – | –
CC(C)[C@@H]1NC(=O)c2cc3ccccc3cc2OCCCOc2ccc(cc2)C[C@@H]([C@H](O)CN2CC3CCCCC3C[C@H]2C(=O)NC(C)(C)C)NC1=O (stereo partly drawn) | 0.017 | 0.0055 | –
CC(C)[C@@H]1NC(=O)/C=C\CCCCOc2ccc(cc2)C[C@@H]([C@H](O)CN2CC3CCCCC3C[C@H]2C(=O)NC(C)(C)C)NC1=O (stereo partly drawn) | 0.031 | – | 0.009
CC(C)(C)NC(=O)[C@@H]1CCCN1C[C@@H](O)[C@@H]1Cc2ccc(cc2)OCCCCOc2cc3ccccc3cc2C(=O)N[C@@H](CC(N)=O)C(=O)N1 | – | 0.9 | –
CC(C)[C@@H]1NC(=O)CCCCCCOc2ccc(cc2)C[C@@H]([C@H](O)CN2CC3CCCCC3C[C@H]2C(=O)NC(C)(C)C)NC1=O (stereo partly drawn) | 0.004 | 0.001 | –
CCCCCCC(=O)N[C@H](C(=O)N[C@@H](Cc1ccccc1)[C@H](O)CN1CC2CCCCC2C[C@H]1C(=O)NC(C)(C)C)C(C)C (stereo partly drawn) | 0.378 | 0.006 | –
CC(C)[C@@H]1NC(=O)/C=C\CCCCCOc2ccc(cc2)C[C@@H]([C@H](O)CN2CC3CCCCC3C[C@H]2C(=O)NC(C)(C)C)NC1=O (stereo partly drawn) | 0.216 | 0.025 | –
CC(C)[C@@H]1NC(=O)/C=C\CCCOc2ccc(cc2)C[C@@H]([C@H](O)CN2CC3CCCCC3C[C@H]2C(=O)NC(C)(C)C)NC1=O (stereo partly drawn) | 0.036 | 0.0073 | –
CC(C)(C)NC(=O)[C@@H]1C[C@@H]2CCCC[C@@H]2CN1C[C@@H](O)[C@@H]1Cc2ccc(cc2)OCCOc2cc3ccccc3cc2C(=O)N[C@@H](CC(N)=O)C(=O)N1 | 0.018 | 0.013 | –
CC(C)[C@H](NC(=O)c1ccc2ccccc2c1)C(=O)N[C@@H](Cc1ccccc1)[C@H](O)CN1CC2CCCCC2C[C@H]1C(=O)NC(C)(C)C (stereo partly drawn) | 0.008 | 0.0009 | –
CC(C)(C)NC(=O)[C@@H]1CCCN1C[C@@H](O)[C@@H]1Cc2ccc(cc2)OCCCOc2cc3ccccc3cc2C(=O)N[C@@H](CC(N)=O)C(=O)N1 | – | 0.4 | –
CC(=O)N[C@H](C(=O)N[C@@H](Cc1ccccc1)[C@H](O)CN1CC2CCCCC2C[C@H]1C(=O)NC(C)(C)C)C(C)C (stereo partly drawn) | 0.029 | 0.003 | –
CC(C)(C)NC(=O)[C@@H]1C[C@@H]2CCCC[C@@H]2CN1C[C@@H](O)[C@@H]1Cc2ccc(cc2)OCCCOc2cc3ccccc3cc2C(=O)N[C@@H](CC(N)=O)C(=O)N1 | 0.014 | 0.01 | –
CC(C)(C)NC(=O)[C@@H]1CCCN1C[C@@H](O)[C@@H]1Cc2ccc(cc2)OCCOc2cc3ccccc3cc2C(=O)N[C@@H](CC(N)=O)C(=O)N1 | – | 0.45 | –
CC(C)[C@@H]1NC(=O)CCCCCOc2ccc(cc2)C[C@@H]([C@H](O)CN2CC3CCCCC3C[C@H]2C(=O)NC(C)(C)C)NC1=O (stereo partly drawn) | 0.008 | 0.0015 | –
CC(C)(C)NC(=O)[C@@H]1C[C@@H]2CCCC[C@@H]2CN1C[C@@H](O)[C@@H]1Cc2ccc(cc2)OCCCCOc2cc3ccccc3cc2C(=O)N[C@@H](CC(N)=O)C(=O)N1 | 0.315 | 0.088 | –
CC(C)[C@@H]1NC(=O)c2ccccc2OCCCOc2ccc(cc2)C[C@@H]([C@H](O)CN2CC3CCCCC3C[C@H]2C(=O)NC(C)(C)C)NC1=O (stereo partly drawn) | 0.02 | 0.008 | –
CC(C)[C@@H]1NC(=O)CCCCCCCOc2ccc(cc2)C[C@@H]([C@H](O)CN2CC3CCCCC3C[C@H]2C(=O)NC(C)(C)C)NC1=O (stereo partly drawn) | 0.026 | 0.0034 | –
CC(C)(C)NC(=O)[C@@H]1CCCN1C[C@H](O)[C@@H]1Cc2ccc(cc2)OCCCOc2cc3ccccc3cc2C(=O)N[C@@H](CC(N)=O)C(=O)N1 | – | 90 | –
